Test results published in patent US20260294883A1, “PHARMACEUTICAL COMPOSITION FOR THE TREATMENT OF POST-TRAUMATIC STRESS SYNDROME” (KINNOV THERAPEUTICS, priority 2022, published 2026).
Structures can show the parent of a compound that is named as a salt.

Columns and labels:
[1] = conditioned fear test, Example 1 (freezing index 3 days after conditioning); assay type: in vivo, rodents; conditions: for p (freezing index, versus control group) / Freezing index / Freezing index, % vs witness: 3 days after conditioning, n = 10; for Freezing index: Mean ± SEM, witnesses 62.12 ± 9.93; for Freezing index, % vs witness: witnesses 100.00
Method: (§1) The conditioned fear test in rodents is recognized as a relevant preclinical model for the study of post-traumatic stress disorders.
(§2) During this test, animals are placed for a 4.5-minute conditioning session in a square box with a stainless steel mesh floor connected to a shock generator.
(§3) A conditioned stimulus (CS) consisting of a sound (80 dB, 2800 Hz, 30 seconds) is presented twice (at 1.5 min and then at 3.5 min).
(§4) An unconditioned stimulus consisting of an electric shock to the paws is delivered at the end of each CS (2 seconds, 0.6 mA).
(§5) The animals were then subjected to memory test sessions of the stressful event on different days after the session of packaging. The sessions of test of memorization (duration of 6 min) comprise a first period of 3 minutes without none CS presentation (period CS−) followed by a second 3 minute period during which the CS is presented (period CS+).
(§6) The sound stimulus alone triggers conditioned fear behavior. In rodents, this behavior is manifested by a prostrate attitude, an immobility behavior (i.e. «freezing») that is distinguished from the animal's exploratory behavior when placed in an enclosure for a short period.
(§7) The analyzed data are the time of immobility during the period CS− and during the period CS+. The freezing index is defined as the difference in immobility time between the period with the sound stimulus and the period without the sound. Therefore, the higher this index, the greater the post-traumatic stress state.
(§8) The «sham» group received no shock. The treatments were administered immediately after the conditioning session, and then 30 minutes before each conditioned fear session (no shock, but with the conditioned stimulus).
(§9) This test measures the effect of stress and its environment and its memorization (i.e. extinction).

[2] = Azevedo et al., Neuropharmacology 164 (2020) 107912; cited from earlier work
[3] = conditioned fear test, Example 3 (comparison with paroxetine); assay type: in vivo, rodents; conditions: for Freezing index Day 1 / Freezing index Day 3 / Freezing index Day 4: n = 10; for Freezing index Day 1: witnesses 53.3 ± 5.7; for Freezing index Day 3: witnesses 38.1 ± 8.7; for Freezing index Day 4: Day 4, treatment stopped after day 3, witnesses 56.2 ± 9.8
Method: as §1, §2, §3, §4, §5, §6, §7, §8, §9
The protocol is identical to that of Example 1 above. In this example, the conditioned fear sessions and the freezing measurement are carried out on days 1, 3 and 4 after the conditioning session. The treatment is stopped after day 3, so that during the 4th observation session, no treatment is administered.

**Q.** With `COc1cc2nc(N3CCN(C(=O)c4ccco4)CC3)nc(N)c2cc1OC` [Prazosin, 2-[4-(2-furoyl)piperazin-1-yl]-6,7-dimethoxyquinazolin-4-amine] as the compound, how does the “p (freezing index, versus control group)” value ([1]; 0.5 mg/kg) read?
**A.** ns

**Q.** What about the Freezing index ([1]; 0.5 mg/kg) of the same compound?
**A.** 41.97 ± 5.82 s

**Q.** What about the “Freezing index, % vs witness” value ([1]; 0.5 mg/kg) of the same compound?
**A.** 67.57%

**Q.** And the “p (freezing index, versus control group)” value ([1]; 1 mg/kg)?
**A.** ns

**Q.** And the Freezing index ([1]; 1 mg/kg)?
**A.** 35.29 ± 12.22 s

**Q.** What about the “Freezing index, % vs witness” value ([1]; 1 mg/kg) of the same compound?
**A.** 56.80%

**Q.** And the “effect on post-traumatic stress syndrome, in words” value ([1]; Example 1 conclusion, conditioned fear test)?
**A.** does not allow the treatment of post-traumatic stress syndrome

**Q.** For `COc1ccccc1N1CCN(CCn2cnc3ccccc3c2=O)CC1` [ACH-000029], which “efficacy versus prazosin alone” value [2] is on record?
**A.** more effective than prazosin alone

**Q.** Which “Freezing index Day 1” value ([3]; 4 mg/kg) does the source give for `Fc1ccc([C@@H]2CCNC[C@H]2COc2ccc3c(c2)OCO3)cc1` [Paroxetine] here?
**A.** 64.5 s

**Q.** What about the “Freezing index Day 3” value ([3]; 4 mg/kg) of the same compound?
**A.** 44.3 s

**Q.** What about the “Freezing index Day 4” value ([3]; 4 mg/kg) of the same compound?
**A.** 38.9 s

**Q.** What about the “Freezing index Day 1” value ([3]; 8 mg/kg) of the same compound?
**A.** 51.3 s

**Q.** What about the “Freezing index Day 3” value ([3]; 8 mg/kg) of the same compound?
**A.** 33.1 s

**Q.** What about the “Freezing index Day 4” value ([3]; 8 mg/kg) of the same compound?
**A.** 50.3 s

**Q.** And the “effect on the memory component and impact of the stressful event / anxious reaction, in words” value ([3]; Example 3 conclusion)?
**A.** no significant effect

**Q.** With `CN1CCC(=C2c3ccccc3C=Cc3ccccc32)CC1` [Cyproheptadine, 4-(5-H-dibenzo[a,d]cyclohepten-5-ylidene)-1-methylpiperidine hydrochloride] as the compound, how does the “p (freezing index, versus control group)” value ([1]; 0.5 mg/kg) read?
**A.** ns

**Q.** What about the Freezing index ([1]; 0.5 mg/kg) of the same compound?
**A.** 38.68 ± 5.84 s

**Q.** And the “Freezing index, % vs witness” value ([1]; 0.5 mg/kg)?
**A.** 62.28%
